Experimental data published in patent US20250179059A1 (The Regents of the University of California, priority 2021, published 2025).
Values belong to the compound of their own block, whether it stands above or below them.

Key:
[1] = biological target: T1, human BRD4 bromodomain II (Homo sapiens, UniProt O60885); experiment: Bromodomain binding assay (AlphaScreen), BRD4 BDII; settings: AlphaScreen assay, Table C2; read-out: BRD4 BDII IC50
T1 construct: human BRD4 bromodomain II [based on Genbank NM_058243, residues 349-460]; host or cells: E. coli
Outline: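 Read-out is AlphaScreen signal (ex 680 nm, em 520-620 nm) from streptavidin donor beads on a biotinylated acetylated histone H4 (aa 1-21) peptide and nickel acceptor beads on the His6-tagged bromodomain. IC50 values come from curve fits of percentage peptide binding against compound concentration.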

[2] = tested on: human SKM-1 acute myeloid leukemia cells; experiment: SKM-1 antiproliferation cell-based assay (ATPlite); settings: Homo sapiens
Procedure: The cell-based assay indirectly measures cell density (and therefore proliferation and/or survival) by detecting total ATP concentration in a homogeneous format. Briefly, human SKM-1 acute myeloid leukemia cells (Leibniz Institute DSMZ #ACC 547) proliferating in log phase are collected by centrifugation, re-suspended in culture media (RPMI 1640/15% FBS/100 U/mL penicillin/100 μg/mL streptomycin) and diluted to 34722 cells/mL in media after counting. Then 180 μL cells are plated per well into a 96-well tissue-culture treated, clear bottom plate (Coming #3603). A 96-well compound plate (Corning #3357) is then generated by serial dilution of compounds into DMSO over nine concentrations and adding separate negative (DMSO) and positive control (reference compound) wells. Each compound concentration is tested in triplicate. First, 1 μL from each well of the compound plate is added to 99 μL culture media in an intermediate plate and mixed by pipetting. Then 20 μL of the diluted compounds in media are added to the assay plate containing the cells. The assay plate is maintained for 4 days in a standard cell culture incubator. At the end of the incubation period, 100 μL ATPlite Istep (PerkinElmer) is added to the assay plate wells, and the resulting luminescence is detected using an Infinite M1000 or a Spark multimode plate reader (Tecan). Data analysis is performed in Prism (GraphPad Software). For curve fitting, a non-linear regression, variable slope equation is used to calculate cellular IC50s.

[3] = SKM-1, 96 h, SKM-1 antiproliferation assay, 4 days, Table C2
[4] = SKM-1, SKM-1 antiproliferation assay

SMILES: O=C1NCCN1c1ccc(-c2cccc(-c3ccnc(N4CCNCC4)c3)c2O)cc1F [Example 231, 1-(3-fluoro-2′-hydroxy-3′-(2-(piperazin-1-yl)pyridin-4-yl)-[1,1′-biphenyl]-4-yl)imidazolidin-2-one]
- IC50 [1]: 1 to 10 nM
- GI50 [2, 3]: 300 to 3000 nM

SMILES: CC(=O)Nc1ccc(-c2cccc(-c3cc(C#N)cc(N4CCNCC4)c3)c2O)cc1F [Example 234, N-(3″-cyano-3-fluoro-2′-hydroxy-5″-(piperazin-1-yl)-[1,1′:3′,1″-terphenyl]-4-yl)acetamide]
- IC50 [1]: 1 to 10 nM
- GI50 [2, 3]: 30 to 300 nM

SMILES: CC(=O)Nc1ccc(-c2cc(F)cc(-c3ccc(C#N)c(N4CCNCC4)c3)c2O)cc1F [Example 235, N-(4″-cyano-3,5′-difluoro-2′-hydroxy-3″-(piperazin-1-yl)-[1,1′:3′,1″-terphenyl]-4-yl)acetamide]
- IC50 [1]: 1 to 10 nM
- GI50 [2, 3]: 30 to 300 nM

SMILES: CC(=O)Nc1ccc(-c2cccc(-c3ccc(C#N)c(N4CCNCC4)c3)c2O)cc1F [Example 236, N-(4″-cyano-3-fluoro-2′-hydroxy-3″-(piperazin-1-yl)-[1,1′:3′,1″-terphenyl]-4-yl)acetamide]
- IC50 [1]: 1 to 10 nM
- GI50 [2, 3]: 30 to 300 nM

SMILES: O=C1CCCN1c1ccc(-c2cccc(-c3ccnc(N4CCNCC4)c3)c2O)cc1F [Example 238, 1-(3-fluoro-2′-hydroxy-3′-(2-(piperazin-1-yl)pyridin-4-yl)-[1,1′-biphenyl]-4-yl)pyrrolidin-2-one]
- IC50 [1]: 1 to 10 nM
- GI50 [2, 3]: 30 to 300 nM

SMILES: CC(=O)Nc1ccc(-c2cccc(-c3ccnc(N4CC[C@H](O)C4)c3)c2O)cc1F [Example 239, (S)-N-(3-fluoro-2′-hydroxy-3′-(2-(3-hydroxypyrrolidin-1-yl)pyridin-4-yl)-[1,1′-biphenyl]-4-yl)acetamide]
- IC50 [1]: 1 to 10 nM
- GI50 [2, 3]: 300 to 3000 nM

SMILES: CN1CCN(c2ccc(-c3cccc(-c4ccnc(N5CCNCC5)c4)c3O)cc2F)C1=O [Example 240, 1-(3-fluoro-2′-hydroxy-3′-(2-(piperazin-1-yl)pyridin-4-yl)-[1,1′-biphenyl]-4-yl)-3-methylimidazolidin-2-one]
- IC50 [1]: 1 to 10 nM
- GI50 [2, 3]: 30 to 300 nM

SMILES: CC(=O)Nc1ccc(-c2cccc(-c3cc(C)nc(N4CCNCC4)c3)c2O)cc1F [Example 244, N-(3-fluoro-2′-hydroxy-3′-(2-methyl-6-(piperazin-1-yl)pyridin-4-yl)-[1,1′-biphenyl]-4-yl)acetamide]
- IC50 [1]: 1 to 10 nM
- GI50 [2, 3]: 30 to 300 nM

SMILES: Cn1ccn(-c2ccc(-c3nc(F)cc(-c4cccc(N5CCN(C(C)(C)C)CC5)c4)c3N)cc2Cl)c1=O [Example 1057, 1-(4-(3-amino-4-(3-(4-(tert-butyl)piperazin-1-yl)phenyl)-6-fluoropyridin-2-yl)-2-chlorophenyl)-3-methyl-1,3-dihydro-2H-imidazol-2-one]
- GI50 [2, 4]: 0.3 to 30 nM

SMILES: Cn1ccn(-c2ccc(-c3cc(F)cc(-c4cccc(N5CCN(C(C)(C)C)CC5)c4)c3N)cc2Cl)c1=O [Example 1058, 1-[2′-Amino-3-(4-tert-butyl-piperazin-1-yl)-3″-chloro-5′-fluoro-[1,1′;3′,1″ ]terphenyl-4″-yl]-3-methyl-1,3-dihydro-imidazol-2-one]
- GI50 [2, 4]: 0.3 to 30 nM

SMILES: CCc1ncc(-c2nc(F)cc(-c3ccc(-n4ccn(C)c4=O)c(Cl)c3)c2O)cc1N1CCN(C(C)(C)C)CC1 [Example 1059, 1-(4-(5′-(4-(tert-butyl)piperazin-1-yl)-6′-ethyl-6-fluoro-3-hydroxy-[2,3′-bipyridin]-4-yl)-2-chlorophenyl)-3-methyl-1,3-dihydro-2H-imidazol-2-one]
- GI50 [2, 4]: 0.3 to 30 nM

Second part, the compound after the results:

- IC50 [1]: 1 to 10 nM
- GI50 [2, 3]: 300 to 3000 nM
SMILES: CC(=O)Nc1c(F)cc(-c2cccc(-c3cc(N4CCNCC4)no3)c2O)cc1OC1CC1 [Example 135, N-(3-cyclopropoxy-5-fluoro-2′-hydroxy-3′-(3-(piperazin-1-yl)isoxazol-5-yl)-[1,1′-biphenyl]-4-yl)acetamide 2,2,2-trifluoroacetate]

- IC50 [1]: 1 to 10 nM
- GI50 [2, 3]: 300 to 3000 nM
SMILES: CN1CCN(c2ccc(-c3cccc(-c4cccc(N5CCNCC5)c4)c3O)cc2F)C1=O [Example 164, 1-(3-Fluoro-2′-hydroxy-3″-(piperazin-1-yl)-[1,1′:3′,1″-terphenyl]-4-yl)-3-methylimidazolidin-2-one]

- IC50 [1]: 1 to 10 nM
- GI50 [2, 3]: 300 to 3000 nM
SMILES: O=C1CCCN1c1ccc(-c2cccc(-c3cccc(N4CCNCC4)c3)c2O)cc1F [Example 173, 1-(3-fluoro-2′-hydroxy-3″-(piperazin-1-yl)-[1,1′:3′,1″-terphenyl]-4-yl)pyrrolidin-2-one]

- IC50 [1]: 1 to 10 nM
- GI50 [2, 3]: 300 to 3000 nM
SMILES: CC(=O)Nc1ccc(-c2cc(F)cc(-c3cccc(N4CCNCC4)c3)c2O)cc1F [Example 180, N-(3,5′-difluoro-2′-hydroxy-3″-(piperazin-1-yl)-[1,1′:3′,1″-terphenyl]-4-yl)acetamide]

- IC50 [1]: 1 to 10 nM
- GI50 [2, 3]: 300 to 3000 nM
SMILES: CC(=O)Nc1ccc(-c2cccc(-c3ccc(F)c(N4CCNCC4)c3)c2O)cc1F [Example 182, N-(3,4″-difluoro-2′-hydroxy-3(piperazin-1-yl)-[1,1′:3′,1″-terphenyl]-4-yl)acetamide]

- IC50 [1]: 1 to 10 nM
- GI50 [2, 3]: 30 to 300 nM
SMILES: CC(=O)Nc1ccc(-c2cccc(-c3cncc(N4CCNCC4)c3)c2O)cc1F [Example 189, N-(3-fluoro-2′-hydroxy-3′-(5-(piperazin-1-yl)pyridin-3-yl)-[1,1′-biphenyl]-4-yl)acetamide]

- IC50 [1]: 1 to 10 nM
- GI50 [2, 3]: 300 to 3000 nM
SMILES: CC(=O)Nc1ccc(-c2cccc(-c3cccc(N4CCN[C@H](C)C4)c3)c2O)cc1F [Example 193, (R)-N-(3-fluoro-2′-hydroxy-3″-(3-methylpiperazin-1-yl)-[1,1′:3′,1″-terphenyl]-4-yl)acetamide]

- IC50 [1]: 1 to 10 nM
- GI50 [2, 3]: 300 to 3000 nM
SMILES: CC(=O)Nc1ccc(-c2cccc(-c3ccnc(N4CCC(O)C4)c3)c2O)cc1F (centres unmarked) [Example 199, N-(3-fluoro-2′-hydroxy-3′-(2-(3-hydroxypyrrolidin-1-yl)pyridin-4-yl)-[1,1′-biphenyl]-4-yl)acetamide]

- IC50 [1]: 1 to 10 nM
- GI50 [2, 3]: 30 to 300 nM
SMILES: CC(=O)Nc1ccc(-c2cccc(-c3cccc(N4CC5CNC(C5)C4)c3)c2O)cc1F (centres unmarked) [Example 206, N-(3″-(3,6-diazabicyclo[3.2.1]octan-3-yl)-3-fluoro-2′-hydroxy-[1,1′:3′,1″-terphenyl]-4-yl)acetamide]

- IC50 [1]: 1 to 10 nM
- GI50 [2, 3]: 30 to 300 nM
SMILES: O=C1CCCN1c1ccc(-c2cccc(-c3ccnc(N4CCNCC4)c3)c2O)cc1Cl [Example 209, 1-(3-chloro-2′-hydroxy-3′-(2-(piperazin-1-yl)pyridin-4-yl)-[1,1′-biphenyl]-4-yl)pyrrolidin-2-one]

- IC50 [1]: 1 to 10 nM
- GI50 [2, 3]: 300 to 3000 nM
SMILES: CC(=O)Nc1ccc(-c2cccc(-c3cc(Cl)cc(N4CCNCC4)c3)c2O)cc1F [Example 214, N-(3″-chloro-3-fluoro-2′-hydroxy-5″-(piperazin-1-yl)-[1,1′:3′,1″-terphenyl]-4-yl)acetamide]

- IC50 [1]: 1 to 10 nM
- GI50 [2, 3]: 300 to 3000 nM
SMILES: O=C1CCCN1c1ccc(-c2cc(F)cc(-c3ccnc(N4CCNCC4)c3)c2O)cc1Cl [Example 217, 1-(3-chloro-5′-fluoro-2′-hydroxy-3′-(2-(piperazin-1-yl)pyridin-4-yl)-[1,1′-biphenyl]-4-yl)pyrrolidin-2-one]

- IC50 [1]: 1 to 10 nM
- GI50 [2, 3]: 300 to 3000 nM
SMILES: CC(=O)Nc1ccc(-c2cc(F)cc(-c3ccnc(N4CCNCC4)c3)c2O)cc1Cl [Example 222, N-(3-chloro-5′-fluoro-2′-hydroxy-3′-(2-(piperazin-1-yl)pyridin-4-yl)-[1,1′-biphenyl]-4-yl)acetamide]

- IC50 [1]: 1 to 10 nM
- GI50 [2, 3]: 30 to 300 nM
SMILES: CC(=O)Nc1ccc(-c2cc(F)cc(-c3ccnc(N4CCNCC4)c3)c2O)cc1F [Example 224, N-(3,5′-difluoro-2′-hydroxy-3′-(2-(piperazin-1-yl)pyridin-4-yl)-[1,1′-biphenyl]-4-yl)acetamide]

- IC50 [1]: 1 to 10 nM
- GI50 [2, 3]: 300 to 3000 nM
SMILES: CC(=O)Nc1ccc(-c2cccc(-c3cc(Cl)nc(N4CCNCC4)c3)c2O)cc1F [Example 226, N-(3′-(2-chloro-6-(piperazin-1-yl)pyridin-4-yl)-3-fluoro-2′-hydroxy-[1,1′-biphenyl]-4-yl)acetamide]

- IC50 [1]: 1 to 10 nM
- GI50 [2, 3]: 300 to 3000 nM
SMILES: CC(=O)Nc1ccc(-c2cccc(-c3ccnc(N4CCC(CO)C4)c3)c2O)cc1F (centres unmarked) [Example 230, N-(3-fluoro-2′-hydroxy-3′-(2-(3-(hydroxymethyl)pyrrolidin-1-yl)pyridin-4-yl)-[1,1′-biphenyl]-4-yl)acetamide]

- IC50 [1]: 0.01 to 1 nM
- GI50 [2, 3]: 30 to 300 nM
SMILES: CC(=O)Nc1ccc(-c2cc(F)cc(-c3ccc(F)c(N4CCNCC4)c3)c2O)cc1F [Example 237, N-(3,4″,5′-trifluoro-2′-hydroxy-3″-(piperazin-1-yl)-[1,1′:3′,1″-terphenyl]-4-yl)acetamide]
